Measured values from ChEMBL document CHEMBL4665660, “A novel indirubin derivative that increases somatic cell plasticity and inhibits tumorigenicity” (Bioorg Med Chem, 2019).
Values belong to the molecule of their own block, whether it stands above or below them. Activity calls are given as the source filed them. The calls are words filed in the database; no cut-off is given here.

Assays:
NIH3T3 [1] = experiment: Adipogenic activity in mouse NIH/3T3 cells assessed as increase in lipid accumulation at 1 uM preincubated for 72 hrs followed by incubation with adipogenic factors for 10 days by Oil red O staining based light microscopy; format: functional, cell-based; details: time 13.0 day
[2] = Induction of cellularization in human primary myotube assessed as alpha-tubulin level at 1 uM incubated for 72 hrs by Western blot analysis (reference value: 0.674); format: functional
NIH3T3 [3] = experiment: Adipogenic activity in mouse NIH/3T3 cells assessed as […] in epinephrine-stimulated fatty acid release at 1 uM preincubated for 72 hrs followed by incubation with adipogenic factors for 10 days by colorimetric assay; format: functional, cell-based
MDA-MB-231 [4] = experiment: Antimetastatic activity in human MDA-MB-231 cells xenografted in zebra fish at 10 uM incubated for 96 hrs by fluorescence microscopy; format: functional, cell-based
[5] = biological target: T1, Aurora kinase A (Homo sapiens) (UniProt O14965); experiment: Inhibition of recombinant human N-terminal His-tagged Aurora A expressed in Sf21 cells using peptide substrate by TR-FRET assay
T1 sequence (whole entry): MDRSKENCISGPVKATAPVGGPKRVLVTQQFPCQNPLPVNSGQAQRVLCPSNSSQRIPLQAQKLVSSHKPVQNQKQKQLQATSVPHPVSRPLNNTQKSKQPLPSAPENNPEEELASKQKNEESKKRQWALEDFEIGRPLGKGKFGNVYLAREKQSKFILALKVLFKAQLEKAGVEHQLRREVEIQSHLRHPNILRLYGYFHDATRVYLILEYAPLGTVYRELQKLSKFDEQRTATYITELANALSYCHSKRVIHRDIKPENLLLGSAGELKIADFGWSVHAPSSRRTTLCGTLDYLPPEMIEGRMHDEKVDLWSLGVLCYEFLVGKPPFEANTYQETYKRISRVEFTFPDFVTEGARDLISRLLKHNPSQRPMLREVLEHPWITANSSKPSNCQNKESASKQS

C2C12 [6] = experiment: Osteogenic activity in mouse C2C12 cells assessed as increase in alkaline phosphatase at 1 uM preincubated for 72 hrs followed by incubation with osteogenic factor for 10 days by fluorescence based assay; format: functional, cell-based; details: time 13.0 day
MDA-MB-231 [7] = experiment: Cytotoxicity against human MDA-MB-231 cells assessed as reduction in cell viability incubated for 72 hrs by MTT assay; format: functional, cell-based; details: MDA-MB-231, 72 h
[8] = Toxicity in zebra fish embryo assessed as skeletal abnormalities at 20 to 40 uM; set-up: species or system Danio rerio; details: zebrafish, dose 20-40 µM
[9] = biological target: T1, Aurora kinase A (Homo sapiens); experiment: Inhibition of recombinant human N-terminal His-tagged Aurora A expressed in Sf21 cells using peptide substrate at 1 uM by TR-FRET assay relative to control
C2C12 (Mus musculus) [10] = experiment: Induction of cellularization in mouse C2C12 myotube assessed as reduction in cell proliferation at 1 uM incubated for 72 hrs by EdU staining based inverted fluorescence microscopy
NIH3T3 [11] = experiment: Adipogenic activity in mouse NIH/3T3 cells assessed as increase in insulin-stimulated glucose uptake at 1 uM preincubated for 72 hrs followed by incubation with adipogenic factors for 10 days by […] probe based fluorescence assay; format: functional, cell-based; details: time 13.0 day
MDA-MB-231 [12] = experiment: Induction of apoptosis in human MDA-MB-231 cells assessed as cleaved caspase-7 at 500 nM incubated for 72 hrs by Western blot assay (reference value: 0.349); format: functional
C2C12 [13] = experiment: Induction of cell cycle arrest in mouse C2C12 cells assessed as G2/M phase at 1 uM incubated for 72 hrs by propidium iodide based flow cytometry (reference value: 19.3 %); format: functional
HCT-116 [14] = experiment: Induction of apoptosis in human HCT-116 cells assessed as cleaved caspase-7 at 500 nM incubated for 72 hrs by Western blot assay (reference value: 0); format: functional
HCT-116 [15] = experiment: Induction of apoptosis in human HCT-116 cells assessed as cleaved PARP at 500 nM incubated for 72 hrs by Western blot assay (reference value: 1.127); format: functional
NIH3T3 [16] = experiment: Downregulation of alpha-SMA in mouse NIH/3T3 cells at 1 uM incubated for 72 hrs by immunofluorescence microscopy; format: functional, cell-based
C2C12 [17] = experiment: Osteogenic activity in mouse C2C12 cells assessed as increase in osteoponin-expression at 1 uM preincubated for 72 hrs followed by incubation with osteogenic factor for 10 days by RT-PCR analysis; format: functional, cell-based; details: time 13.0 day
[18] = biological target: Glycogen synthase kinase-3 beta (Homo sapiens) (UniProt P49841); experiment: Inhibition of GSK3beta (unknown origin) using PASVPPSPSLSRHSSPHQpSED as substrate at 1 uM preincubated for 10 mins followed by substrate addition and measured after 30 mins by TR-FRET assay relative to control
[19] = Induction of cellularization in human primary myotube assessed as beta-actin level at 1 uM incubated for 72 hrs by Western blot analysis (reference value: 1.095); format: tissue-based
MDA-MB-231 [20] = experiment: Induction of apoptosis in human MDA-MB-231 cells assessed as cleaved PARP at 500 nM incubated for 72 hrs by Western blot assay (reference value: 0.519); format: functional
MDA-MB-231 [21] = experiment: Inhibition of cell invasion in human MDA-MB-231 cells at 50 nM incubated for 72 hrs by crystal violet staining based assay; format: functional
C2C12 (Mus musculus) [22] = experiment: Induction of cellularization in mouse C2C12 myotube at 1 uM incubated for 72 hrs by microscopic analysis
[23] = Toxicity in zebra fish embryo assessed as reduction in cell viability at 40 uM; set-up: species or system Danio rerio; details: zebrafish
C2C12 [24] = experiment: Osteogenic activity in mouse C2C12 cells assessed as increase in plasticity at 1 uM preincubated for 72 hrs followed by incubation with osteogenic factor for 10 days by Alizarin red staining based light microscopy; format: functional, cell-based; details: time 13.0 day
[25] = Toxicity in zebra fish embryo assessed as reduction in swimming ability at 20 to 40 uM; set-up: species or system Danio rerio; details: zebrafish, dose 20-40 µM
C2C12 [26] = experiment: Induction of cell cycle arrest in mouse C2C12 cells assessed as S phase at 1 uM incubated for 72 hrs by propidium iodide based flow cytometry (reference value: 10.5 %); format: functional
C2C12 [27] = experiment: Induction of cell cycle arrest in mouse C2C12 cells assessed as G1 phase at 1 uM incubated for 72 hrs by propidium iodide based flow cytometry (reference value: 61.2 %); format: functional
[28] = biological target: Glycogen synthase kinase-3 beta (Homo sapiens) (UniProt P49841); experiment: Inhibition of GSK3beta (unknown origin) using PASVPPSPSLSRHSSPHQpSED as substrate preincubated for 10 mins followed by substrate addition and measured after 30 mins by TR-FRET assay; details: time 40.0 mins
NIH3T3 [29] = experiment: Downregulation of alpha-SMA in mouse NIH-3T3 cells at 1 uM incubated for 72 hrs by Western blotting assay; format: functional, cell-based
C2C12 [30] = experiment: Osteogenic activity in mouse C2C12 cells assessed as increase in mineralization at 1 uM preincubated for 72 hrs followed by incubation with osteogenic factor for 10 days; format: functional, cell-based; details: time 13.0 day
HCT-116 [31] = experiment: Cytotoxicity against human HCT-116 cells assessed as reduction in cell viability incubated for 72 hrs by MTT assay; format: functional, cell-based; details: HCT-116, 72 h
[32] = Induction of cellularization in human primary myotube assessed as alpha-tubulin level at 100 nM in presence of BIO incubated for 72 hrs by Western blot analysis (reference value: 0.674); format: functional
[33] = Induction of cellularization in human primary myotube assessed as beta-actin level at 100 nM in presence of BIO incubated for 72 hrs by Western blot analysis (reference value: 1.095); format: tissue-based; details: 0.1 µM
[34] = Induction of cellularization in human primary myotube assessed as alpha-tubulin level at 20 uM incubated for 72 hrs by Western blot analysis (reference value: 0.674); format: functional
[35] = Induction of cellularization in human primary myotube assessed as beta-actin level at 20 uM incubated for 72 hrs by Western blot analysis (reference value: 1.095); format: tissue-based
[36] = Induction of cellularization in human primary myotube assessed as beta-actin level at 5 uM in presence of reversine incubated for 72 hrs by Western blot analysis (reference value: 1.095); format: tissue-based
[37] = Induction of cellularization in human primary myotube assessed as alpha-tubulin level at 5 uM in presence of reversine incubated for 72 hrs by Western blot analysis (reference value: 0.674); format: functional

Sequence of Glycogen synthase kinase-3 beta (Homo sapiens) (P49841 whole entry, looked up): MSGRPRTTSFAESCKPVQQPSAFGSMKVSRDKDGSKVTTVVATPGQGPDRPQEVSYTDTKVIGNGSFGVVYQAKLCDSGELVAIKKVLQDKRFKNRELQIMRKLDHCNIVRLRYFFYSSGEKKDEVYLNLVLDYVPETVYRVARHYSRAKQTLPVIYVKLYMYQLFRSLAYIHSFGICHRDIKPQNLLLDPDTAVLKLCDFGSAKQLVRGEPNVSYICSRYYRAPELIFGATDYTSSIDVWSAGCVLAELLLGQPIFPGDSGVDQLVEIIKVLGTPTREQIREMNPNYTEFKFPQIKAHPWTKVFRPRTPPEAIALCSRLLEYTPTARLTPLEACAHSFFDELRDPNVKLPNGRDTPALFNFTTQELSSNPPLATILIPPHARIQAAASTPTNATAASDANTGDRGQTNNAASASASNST

inhibition [5]: Dose-dependent effect | inhibition [9]: 47.7% | inhibition [18]: 99.8% | fold change (FC) [19]: 1.451 | inhibition [28]: Dose-dependent effect
Compound: Cl.NCCO/N=C1/C(=C2/C(=O)Nc3ccc([N+](=O)[O-])cc32)Nc2ccc(O)cc21
Activity (NIH3T3 [1]): Active | fold change (FC) [2]: 1.064 | Activity (NIH3T3 [3]): Active | Activity (MDA-MB-231 [4]): Active | Activity (C2C12 [6]): Active | IC50 (MDA-MB-231 [7]): 738 nM | Activity [8]: Toxic | Activity (C2C12 (Mus musculus) [10]): Active | Activity (NIH3T3 [11]): Active | fold change (FC) (MDA-MB-231 [12]): 0.674 | Activity (C2C12 [13]): 35% | fold change (FC) (HCT-116 [14]): 1.115 | fold change (FC) (HCT-116 [15]): 1.129 | Activity (NIH3T3 [16]): Active | Activity (C2C12 [17]): Active | fold change (FC) (MDA-MB-231 [20]): 1.962 | inhibition (MDA-MB-231 [21]): Active | Activity (C2C12 (Mus musculus) [22]): Active | Activity [23]: Toxic | Activity (C2C12 [24]): Active | Activity [25]: Toxic | Activity (C2C12 [26]): 18% | Activity (C2C12 [27]): 33.6% | Activity (NIH3T3 [29]): Active | Activity (C2C12 [30]): Active | IC50 (HCT-116 [31]): 302 nM

fold change (FC) [33]: 1.388
Compound: COC(=O)[C@H]1[C@H]2C[C@@H]3c4[nH]c5cc(OC)ccc5c4CCN3C[C@H]2C[C@@H](OC(=O)c2cc(OC)c(OC)c(OC)c2)[C@@H]1OC [RESERPINE]
fold change (FC) [32]: 0.758

fold change (FC) [35]: 1.139
Compound: COc1ccc(CNc2nc(NCc3ccc(OC)cc3)c3ncn(C(C)C)c3n2)cc1 [MYOSEVERIN]
fold change (FC) [34]: 0

fold change (FC) [36]: 1.388
Compound: O=C1Nc2cc(Br)ccc2/C1=C1/Nc2ccccc2/C1=N\O [6BIO]
fold change (FC) [37]: 0.758
